Where a name gives a salt, the structure may show the parent alone. Read-outs that look alike come from different tables or passages of the source.
Assays:
[1] = target: BRD4 (BD1+BD2) bromodomain (Homo sapiens (Human), UniProt O60885); assay: BRD4 binding inhibition (AlphaScreen, GST-BRD4 vs tetraacetylated histone H4 peptide)
Procedure, shortened: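 GST-BRD4 (BD1+BD2) and biotinylated tetraacetyl-histone H4 peptide, each at 100 nM in HEPES pH 7.4 buffer with BSA and DTT, were combined with compound. Glutathione acceptor and streptavidin donor beads were added, then incubated 30 min at room temperature in the dark. Read-out was AlphaScreen signal.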

[2] = test system: acute myelogenous leukemia cells (MV-4-11 cells); assay: Cytotoxicity to acute myelogenous leukemia cells (MV-4-11 cells), CCK-8; settings: Homo sapiens, MV4-11, 72 h
[3] = GST-BRD4 (BD1+BD2) / biotinylated acetyl-histone H4 (Lys5,8,12,16) peptide, read-out: IC50, BRD4 binding inhibition
[4] = GST-BRD4 (BD1+BD2) vs biotinylated acetyl-histone H4 peptide, AlphaScreen, read-out: BRD4 IC50
[5] = read-out: IC50, cytotoxicity against acute myelogenous leukemia cells
[6] = read-out: MV-4-11 Cytotoxicity IC50

SMILES	IC50 [1, 3] [nM]	IC50 [1, 4] [nM]	IC50 [2, 5] [nM]	IC50 [2, 6] [nM]
Cc1nnc2c(NCCCCNC(=O)CC(C)C)nc3cc([N+](=O)[O-])ccc3n12 [Example 244]	–	89	–	260
CCOc1cc2nc(NCCCCNC(=O)OC(C)C)c3nnc(C)n3c2cc1OCC [Example 175, [4-(7,8-diethoxy-1-methyl-[1,2,4]triazolo[4,3-a]quinoxaline-4-ylamino)-butyl]-carbamic acid isopropylester]	≤ 50	26	–	260
COc1cc2nc(NCCCCNC(=O)OCc3ccccc3)c3nnc(C)n3c2cc1OC [Example 68, [4-(7,8-dimethoxy-1-methyl-[1,2,4]triazolo[4,3-a]quinoxaline-4-ylamino)-butyl]-carbamic acid benzylester]	≤ 50	38	–	450
Cc1nnc2c(NCCCCNC(=O)[C@@H](NC(=O)C(C)(C)C)C(C)C)nc3cc(N4C[C@@H](C)O[C@@H](C)C4)ccc3n12 [Example 519]	≤ 50	49	–	400
COc1cc2nc(NCCCCNC(=O)CC(C)C)c3nnc(C)n3c2cc1C(F)(F)F [Example 476, N-[4-(7-methoxy-1-methyl-8-trifluoromethyl-[1,2,4]triazolo[4,3-a]quinoxaline-4-ylamino)-butyl]-3-methyl-butyramide]	≤ 50	34	–	480
Cc1nnc2c(NCCCCNC(=O)[C@@H](N)C(C)C)nc3cc(N4CCOCC4)ccc3n12 [Example 503, 2-(S)-amino-3-methyl-N-[4-(1-methyl-7-morpholine-4-yl-[1,2,4]triazolo[4,3-a]quinoxaline-4-ylamino)-butyl]-butyramide hydrochloride]	–	63	–	575
Cc1nnc2c(NCCCCNC(=O)[C@H](O)C(C)C)nc3cc(N4C[C@@H](C)O[C@@H](C)C4)ccc3n12 [Example 512, N-{4-[7-(2,6-dimethyl-morpholine-4-yl)-1-methyl-[1,2,4]triazolo[4,3-a]quinoxaline-4-ylamino]-butyl}-2-(R)-hydroxy-3-methyl-butyramide]	–	65	–	631
COc1cc2nc(NCCCCC(=O)NCc3ccc[nH]3)c3nnc(C)n3c2cc1OC [Example 652, 5-(7,8-dimethoxy-1-methyl-[1,2,4]triazolo[4,3-a]quinoxaline-4-ylamino)-pentanoic acid-(1H-pyrrole-2-ylmethyl)-amide]	≤ 50	27	≤ 200	200
C#CCNc1cc2c(cc1OC)nc(NCCCCNC(=O)CC(C)C)c1nnc(C)n12 [Example 560]	≤ 50	37	≤ 200	71
COCCOc1cc2nc(NCCCCNC(=O)C(C)(C)C)c3nnc(C)n3c2cc1OCCOC [Example 164, N-{4-[7,8-bis-(2-methoxy-ethoxy)-1-methyl-[1,2,4]triazolo[4,3-a]quinoxaline-4-ylamino]-butyl}-2,2-dimethyl-propionamide]	≤ 50	37	–	570
Cc1nnc2c(NCCCCNC(=O)[C@@H](N)C(C)C)nc3cc(N4CC(C)OC(C)C4)ccc3n12 (stereo partly drawn) [Example 514, 2-(S)-amino-N-{4-[7-(2,6-dimethyl-morpholine-4-yl)-1-methyl-[1,2,4]triazolo[4,3-a]quinoxaline-4-ylamino]-butyl}-3-methyl-butyramide hydrochloride]	–	60	–	432
COc1ccc2c(c1)nc(NCCCCNC(=O)Cc1ccco1)c1nnc(C)n12 [Example 308, 2-furan-2-yl-N-[4-(7-methoxy-1-methyl-[1,2,4]triazolo[4,3-a]quinoxaline-4-ylamino)-butyl]-acetamide]	–	58	≤ 200	20
C/C=C/C(=O)NCCCCNc1nc2cc(OC)ccc2n2c(C)nnc12 [Example 283, butene-2-oic acid-[4-(7-methoxy-1-methyl-[1,2,4]triazolo[4,3-a]quinoxaline-4-ylamino)-butyl]-amide]	–	51	–	176
CSc1ccc2c(c1)nc(NCCCCNC(=O)[C@@H](F)C(C)C)c1nnc(C)n12 [Example 357, 2-(S)-fluoro-3-methyl-N-[4-(1-methyl-7-methylsulfanyl-[1,2,4]triazolo[4,3-a]quinoxaline-4-ylamino)-butyl]-butyramide]	–	62	≤ 200	44
COCCOc1ccc2c(c1)nc(NCCCCNC(=O)c1cccc(Cl)c1Cl)c1nnc(C)n12 [Example 413, 2,3-dichloro-N-{4-[7-(2-methoxy-ethoxy)-1-methyl-[1,2,4]triazolo[4,3-a]quinoxaline-4-ylamino]-butyl}-benzamide]	≤ 10	–	–	190

The next lines start with results.

IC50 [1, 3] [nM]	IC50 [1, 4] [nM]	SMILES	IC50 [2, 5] [nM]	IC50 [2, 6] [nM]
≤ 10	9	CCC(C)CC(=O)NCCCCNc1nc2cc(N3CCOCC3)ccc2n2c(C)nnc12 (stereo not drawn) [Example 501, 3-methyl-pentanoic acid-[4-(1-methyl-7-morpholine-4-yl-[1,2,4]triazolo[4,3-a]quinoxaline-4-ylamino)-butyl]-amide]	≤ 200	60
≤ 10	2	Cc1nnc2c(NCCCCNC(=O)CCC(C)C)nc3cc(-c4nc5ccccc5n4C)ccc3n12 [Example 236, 4-methyl-pentanoic acid-{4-[1-methyl-7-(1-methyl-1H-benzoimidazole-2-yl)-[1,2,4]triazolo[4,3-a]quinoxaline-4-ylamino]-butyl}-amide]	≤ 200	87
≤ 50	18	CCc1nnc2c(NCCCCNC(=O)CC(C)C)nc3cc(OC)c(OC)cc3n12 [Example 597, N-[4-(1-ethyl-7,8-dimethoxy-[1,2,4]triazolo[4,3-a]quinoxaline-4-ylamino)-butyl]-3-methyl-butyramide]	–	230
≤ 50	15	CCC(F)(F)C(=O)NCCCCNc1nc2cc(OC)ccc2n2c(C)nnc12 [Example 294, 2,2-difluoro-N-[4-(7-methoxy-1-methyl-[1,2,4]triazolo[4,3-a]quinoxaline-4-ylamino)-butyl]-butyramide]	–	203
≤ 10	5	CCC(F)(F)C(=O)NCCCCNc1nc2cc(OCCOC)ccc2n2c(C)nnc12 [Example 391, 2,2-difluoro-N-{4-[7-(2-methoxy-ethoxy)-1-methyl-[1,2,4]triazolo[4,3-a]quinoxaline-4-ylamino]-butyl}-butyramide]	≤ 200	200
≤ 10	9	COCCOc1ccc2c(c1)nc(NCCCCNC(=O)c1ccccc1F)c1nnc(C)n12 [Example 409, 2-fluoro-N-{4-[7-(2-methoxy-ethoxy)-1-methyl-[1,2,4]triazolo[4,3-a]quinoxaline-4-ylamino]-butyl}-benzamide]	–	380
≤ 50	17	COc1cc2nc(NCCCCNC(=O)Cc3ccccc3)c3nnc(C)n3c2cc1OC [Example 86, N-[4-(7,8-dimethoxy-1-methyl-[1,2,4]triazolo[4,3-a]quinoxaline-4-ylamino)-butyl]-2-phenyl-acetamide]	≤ 200	60
≤ 50	20	CCCOC(=O)NCCCCNc1nc2cc(OC)c(OC)cc2n2c(C)nnc12 [Example 64, [4-(7,8-dimethoxy-1-methyl-[1,2,4]triazolo[4,3-a]quinoxaline-4-ylamino)-butyl]-carbamic acid propylester]	≤ 200	120
≤ 50	16	COc1ccc2c(c1)nc(NCCCCC(=O)NCc1ccco1)c1nnc(C)n12 [Example 657]	≤ 200	80
≤ 50	18	CCc1nnc2c(NCCCCNC(=O)OCC(C)C)nc3cc(OC)c(OC)cc3n12 [Example 598, [4-(1-ethyl-7,8-dimethoxy-[1,2,4]triazolo[4,3-a]quinoxaline-4-ylamino)-butyl]-carbamic acid isobutylester]	–	290
≤ 50	11	Cc1nnc2c(NCCCCNC(=O)[C@@H](O)C(C)C)nc3cc4c(cc3n12)OCCO4 [Example 183, 2-(S)-hydroxy-3-methyl-N-[4-(1-methyl-8,9-dihydro-7,10-dioxa-2,3,5,11b-tetraaza-cyclopenta[a]anthracene-4-ylamino)-butyl]-butyramide]	–	250
≤ 50	11	Cc1nnc2c(NCCCCNC(=O)[C@H](O)C(C)C)nc3cc(-c4nc5ccccc5n4C)ccc3n12 [Example 235, 2-(R)-hydroxy-3-methyl-N-{4-[1-methyl-7-(1-methyl-1H-benzimidazole-2-yl)-[1,2,4]triazolo[4,3-a]quinoxaline-4-ylamino]-butyl}-butyramide]	–	390
≤ 10	4	Cc1nnc2c(NCCCCNC(=O)[C@H](O)C(C)C)nc3cc(-c4nc5ccccc5[nH]4)ccc3n12 [Example 226, N-{4-[7-(1H-benzoimidazole-2-yl)-1-methyl-[1,2,4]triazolo[4,3-a]quinoxaline-4-ylamino]-butyl}-2-(R)-hydroxy-3-methyl-butyramide]	–	290
≤ 50	23	CCC(C)CNC(=O)CCCCNc1nc2cc(OC)c(OC)cc2n2c(C)nnc12 (stereo not drawn) [Example 649, 5-(7,8-dimethoxy-1-methyl-[1,2,4]triazolo[4,3-a]quinoxaline-4-ylamino)-pentanoic acid-(2-methyl-butyl)-amide]	≤ 200	160

From patent publication US11028090B2 (Dong Wha Pharm. Co., Ltd., priority 2017, dated 2021)
